In the OligoGym collection one finds normalised inhibition (eCFP-eYFP dual reporter) data, which are given here for 20 substances.

Oligonucleotides are given in HELM: sugar(base)linkage, 5' to 3'; d 2'-deoxyribose, r ribose, m 2'-O-methylribose, p phosphate. ss, as = sense and antisense strand

One data set addresses UBE2N. As to the kind of experiment: reporter assay of Huesken 2005. To be noted: siRNA. Background: Reporter assays use an easily measured gene product as a stand-in for the process of interest.
A further data set has as its target UBE2K. As to the kind of experiment: reporter assay of Huesken 2005. To be noted: siRNA.
Note: test concentration or dose not given here.

“RNA1{r(C)p.r(C)p.r(A)p.r(U)p.r(U)p.r(A)p.r(G)p.r(C)p.r(A)p.r(A)p.r(A)p.r(U)p.r(G)p.r(A)p.r(U)p.r(G)p.r(U)p.r(A)p.r(G)p.d(T)p.d(T)}|RNA2{r(C)p.r(U)p.r(A)p.r(C)p.r(A)p.r(U)p.r(C)p.r(A)p.r(U)p.r(U)p.r(U)p.r(G)p.r(C)p.r(U)p.r(A)p.r(A)p.r(U)p.r(G)p.r(G)p.d(A)p.d(T)}$$$RNA1{StrandType:ss}|RNA2{StrandType:as}$”: the normalised inhibition (eCFP-eYFP dual reporter) in the data set with UBE2N was found to be 77.9%. “RNA1{r(U)p.r(C)p.r(C)p.r(C)p.r(A)p.r(A)p.r(U)p.r(C)p.r(C)p.r(A)p.r(G)p.r(A)p.r(U)p.r(G)p.r(A)p.r(U)p.r(C)p.r(C)p.r(A)p.d(T)p.d(T)}|RNA2{r(U)p.r(G)p.r(G)p.r(A)p.r(U)p.r(C)p.r(A)p.r(U)p.r(C)p.r(U)p.r(G)p.r(G)p.r(A)p.r(U)p.r(U)p.r(G)p.r(G)p.r(G)p.r(A)p.d(G)p.d(C)}$$$RNA1{StrandType:ss}|RNA2{StrandType:as}$” showed a normalised inhibition (eCFP-eYFP dual reporter) in the data set with UBE2N of 78.4%. “RNA1{r(G)p.r(G)p.r(A)p.r(C)p.r(U)p.r(U)p.r(U)p.r(U)p.r(A)p.r(A)p.r(A)p.r(C)p.r(U)p.r(U)p.r(G)p.r(A)p.r(A)p.r(C)p.r(U)p.d(T)p.d(T)}|RNA2{r(A)p.r(G)p.r(U)p.r(U)p.r(C)p.r(A)p.r(A)p.r(G)p.r(U)p.r(U)p.r(U)p.r(A)p.r(A)p.r(A)p.r(A)p.r(G)p.r(U)p.r(C)p.r(C)p.d(C)p.d(T)}$$$RNA1{StrandType:ss}|RNA2{StrandType:as}$” displayed a normalised inhibition (eCFP-eYFP dual reporter) with UBE2N of 87.2%. In turn, “RNA1{r(U)p.r(C)p.r(C)p.r(U)p.r(U)p.r(C)p.r(C)p.r(A)p.r(G)p.r(A)p.r(A)p.r(G)p.r(A)p.r(A)p.r(U)p.r(A)p.r(C)p.r(C)p.r(C)p.d(T)p.d(T)}|RNA2{r(G)p.r(G)p.r(G)p.r(U)p.r(A)p.r(U)p.r(U)p.r(C)p.r(U)p.r(U)p.r(C)p.r(U)p.r(G)p.r(G)p.r(A)p.r(A)p.r(G)p.r(G)p.r(A)p.d(A)p.d(T)}$$$RNA1{StrandType:ss}|RNA2{StrandType:as}$” yielded a normalised inhibition (eCFP-eYFP dual reporter) in the data set with UBE2N of 36.9%.

As for “RNA1{r(A)p.r(G)p.r(C)p.r(C)p.r(C)p.r(A)p.r(A)p.r(G)p.r(C)p.r(C)p.r(A)p.r(U)p.r(A)p.r(G)p.r(A)p.r(A)p.r(A)p.r(C)p.r(A)p.d(T)p.d(T)}|RNA2{r(U)p.r(G)p.r(U)p.r(U)p.r(U)p.r(C)p.r(U)p.r(A)p.r(U)p.r(G)p.r(G)p.r(C)p.r(U)p.r(U)p.r(G)p.r(G)p.r(G)p.r(C)p.r(U)p.d(T)p.d(C)}$$$RNA1{StrandType:ss}|RNA2{StrandType:as}$”, in the data set with UBE2N, the normalised inhibition (eCFP-eYFP dual reporter) was 91.7%.

The substance “RNA1{r(A)p.r(U)p.r(U)p.r(U)p.r(U)p.r(C)p.r(A)p.r(U)p.r(G)p.r(U)p.r(G)p.r(G)p.r(U)p.r(C)p.r(A)p.r(U)p.r(U)p.r(G)p.r(C)p.d(T)p.d(T)}|RNA2{r(G)p.r(C)p.r(A)p.r(A)p.r(U)p.r(G)p.r(A)p.r(C)p.r(C)p.r(A)p.r(C)p.r(A)p.r(U)p.r(G)p.r(A)p.r(A)p.r(A)p.r(A)p.r(U)p.d(A)p.d(A)}$$$RNA1{StrandType:ss}|RNA2{StrandType:as}$” yielded a normalised inhibition (eCFP-eYFP dual reporter) with UBE2N of 47.1%. The same measure, in the same setting: as for “RNA1{r(C)p.r(G)p.r(U)p.r(U)p.r(U)p.r(C)p.r(A)p.r(U)p.r(G)p.r(A)p.r(C)p.r(C)p.r(A)p.r(A)p.r(A)p.r(A)p.r(U)p.r(U)p.r(U)p.d(T)p.d(T)}|RNA2{r(A)p.r(A)p.r(A)p.r(U)p.r(U)p.r(U)p.r(U)p.r(G)p.r(G)p.r(U)p.r(C)p.r(A)p.r(U)p.r(G)p.r(A)p.r(A)p.r(A)p.r(C)p.r(G)p.d(T)p.d(A)}$$$RNA1{StrandType:ss}|RNA2{StrandType:as}$”, the figure is 100%; as for “RNA1{r(G)p.r(U)p.r(G)p.r(G)p.r(U)p.r(C)p.r(C)p.r(C)p.r(C)p.r(A)p.r(G)p.r(C)p.r(A)p.r(C)p.r(U)p.r(G)p.r(C)p.r(A)p.r(G)p.d(T)p.d(T)}|RNA2{r(C)p.r(U)p.r(G)p.r(C)p.r(A)p.r(G)p.r(U)p.r(G)p.r(C)p.r(U)p.r(G)p.r(G)p.r(G)p.r(G)p.r(A)p.r(C)p.r(C)p.r(A)p.r(C)p.d(T)p.d(T)}$$$RNA1{StrandType:ss}|RNA2{StrandType:as}$”, 59.4%. Regarding “RNA1{r(A)p.r(C)p.r(G)p.r(U)p.r(U)p.r(U)p.r(C)p.r(A)p.r(U)p.r(G)p.r(A)p.r(C)p.r(C)p.r(A)p.r(A)p.r(A)p.r(A)p.r(U)p.r(U)p.d(T)p.d(T)}|RNA2{r(A)p.r(A)p.r(U)p.r(U)p.r(U)p.r(U)p.r(G)p.r(G)p.r(U)p.r(C)p.r(A)p.r(U)p.r(G)p.r(A)p.r(A)p.r(A)p.r(C)p.r(G)p.r(U)p.d(A)p.d(C)}$$$RNA1{StrandType:ss}|RNA2{StrandType:as}$”, the normalised inhibition (eCFP-eYFP dual reporter) with UBE2N turned out to be 92.1%.

For the substance “RNA1{r(C)p.r(A)p.r(G)p.r(U)p.r(G)p.r(G)p.r(A)p.r(A)p.r(G)p.r(A)p.r(C)p.r(C)p.r(A)p.r(A)p.r(C)p.r(G)p.r(A)p.r(A)p.r(G)p.d(T)p.d(T)}|RNA2{r(C)p.r(U)p.r(U)p.r(C)p.r(G)p.r(U)p.r(U)p.r(G)p.r(G)p.r(U)p.r(C)p.r(U)p.r(U)p.r(C)p.r(C)p.r(A)p.r(C)p.r(U)p.r(G)p.d(C)p.d(T)}$$$RNA1{StrandType:ss}|RNA2{StrandType:as}$”, in the data set with UBE2N, the normalised inhibition (eCFP-eYFP dual reporter) came to 78%. In the data set with UBE2N, “RNA1{r(C)p.r(U)p.r(U)p.r(G)p.r(A)p.r(A)p.r(C)p.r(U)p.r(A)p.r(U)p.r(U)p.r(C)p.r(C)p.r(U)p.r(U)p.r(C)p.r(C)p.r(A)p.r(G)p.d(T)p.d(T)}|RNA2{r(C)p.r(U)p.r(G)p.r(G)p.r(A)p.r(A)p.r(G)p.r(G)p.r(A)p.r(A)p.r(U)p.r(A)p.r(G)p.r(U)p.r(U)p.r(C)p.r(A)p.r(A)p.r(G)p.d(T)p.d(T)}$$$RNA1{StrandType:ss}|RNA2{StrandType:as}$” registered a normalised inhibition (eCFP-eYFP dual reporter) of 84.8%. The substance “RNA1{r(U)p.r(G)p.r(A)p.r(A)p.r(A)p.r(G)p.r(A)p.r(U)p.r(A)p.r(A)p.r(G)p.r(U)p.r(G)p.r(G)p.r(U)p.r(C)p.r(C)p.r(C)p.r(C)p.d(T)p.d(T)}|RNA2{r(G)p.r(G)p.r(G)p.r(G)p.r(A)p.r(C)p.r(C)p.r(A)p.r(C)p.r(U)p.r(U)p.r(A)p.r(U)p.r(C)p.r(U)p.r(U)p.r(U)p.r(C)p.r(A)p.d(A)p.d(A)}$$$RNA1{StrandType:ss}|RNA2{StrandType:as}$” returned a normalised inhibition (eCFP-eYFP dual reporter) with UBE2N of 34.5%.

“RNA1{r(C)p.r(A)p.r(C)p.r(C)p.r(A)p.r(U)p.r(A)p.r(U)p.r(G)p.r(A)p.r(A)p.r(G)p.r(G)p.r(A)p.r(G)p.r(G)p.r(A)p.r(A)p.r(G)p.d(T)p.d(T)}|RNA2{r(C)p.r(U)p.r(U)p.r(C)p.r(C)p.r(U)p.r(C)p.r(C)p.r(U)p.r(U)p.r(C)p.r(A)p.r(U)p.r(A)p.r(U)p.r(G)p.r(G)p.r(U)p.r(G)p.d(T)p.d(G)}$$$RNA1{StrandType:ss}|RNA2{StrandType:as}$” registered a normalised inhibition (eCFP-eYFP dual reporter) with UBE2K of 69.5%. In turn, “RNA1{r(G)p.r(A)p.r(U)p.r(G)p.r(C)p.r(U)p.r(G)p.r(U)p.r(A)p.r(G)p.r(U)p.r(A)p.r(G)p.r(C)p.r(A)p.r(A)p.r(A)p.r(U)p.r(C)p.d(T)p.d(T)}|RNA2{r(G)p.r(A)p.r(U)p.r(U)p.r(U)p.r(G)p.r(C)p.r(U)p.r(A)p.r(C)p.r(U)p.r(A)p.r(C)p.r(A)p.r(G)p.r(C)p.r(A)p.r(U)p.r(C)p.d(C)p.d(T)}$$$RNA1{StrandType:ss}|RNA2{StrandType:as}$” came in with a normalised inhibition (eCFP-eYFP dual reporter) with UBE2K of 65.5%. Still for that read-out and setting: under “RNA1{r(A)p.r(G)p.r(G)p.r(A)p.r(C)p.r(C)p.r(U)p.r(C)p.r(C)p.r(A)p.r(G)p.r(A)p.r(C)p.r(A)p.r(C)p.r(A)p.r(C)p.r(C)p.r(A)p.d(T)p.d(T)}|RNA2{r(U)p.r(G)p.r(G)p.r(U)p.r(G)p.r(U)p.r(G)p.r(U)p.r(C)p.r(U)p.r(G)p.r(G)p.r(A)p.r(G)p.r(G)p.r(U)p.r(C)p.r(C)p.r(U)p.d(G)p.d(C)}$$$RNA1{StrandType:ss}|RNA2{StrandType:as}$” stands 74.6%; under “RNA1{r(C)p.r(A)p.r(G)p.r(A)p.r(G)p.r(C)p.r(C)p.r(A)p.r(G)p.r(A)p.r(U)p.r(G)p.r(A)p.r(U)p.r(C)p.r(C)p.r(A)p.r(C)p.r(A)p.d(T)p.d(T)}|RNA2{r(U)p.r(G)p.r(U)p.r(G)p.r(G)p.r(A)p.r(U)p.r(C)p.r(A)p.r(U)p.r(C)p.r(U)p.r(G)p.r(G)p.r(C)p.r(U)p.r(C)p.r(U)p.r(G)p.d(C)p.d(A)}$$$RNA1{StrandType:ss}|RNA2{StrandType:as}$”, 82.5%; under “RNA1{r(A)p.r(U)p.r(A)p.r(C)p.r(C)p.r(A)p.r(A)p.r(C)p.r(U)p.r(A)p.r(G)p.r(A)p.r(G)p.r(A)p.r(U)p.r(A)p.r(A)p.r(A)p.r(A)p.d(T)p.d(T)}|RNA2{r(U)p.r(U)p.r(U)p.r(U)p.r(A)p.r(U)p.r(C)p.r(U)p.r(C)p.r(U)p.r(A)p.r(G)p.r(U)p.r(U)p.r(G)p.r(G)p.r(U)p.r(A)p.r(U)p.d(C)p.d(T)}$$$RNA1{StrandType:ss}|RNA2{StrandType:as}$”, 78.5%. Same read-out and setting: as for “RNA1{r(G)p.r(C)p.r(A)p.r(G)p.r(C)p.r(U)p.r(G)p.r(C)p.r(A)p.r(A)p.r(U)p.r(G)p.r(A)p.r(C)p.r(U)p.r(C)p.r(U)p.r(C)p.r(C)p.d(T)p.d(T)}|RNA2{r(G)p.r(G)p.r(A)p.r(G)p.r(A)p.r(G)p.r(U)p.r(C)p.r(A)p.r(U)p.r(U)p.r(G)p.r(C)p.r(A)p.r(G)p.r(C)p.r(U)p.r(G)p.r(C)p.d(C)p.d(C)}$$$RNA1{StrandType:ss}|RNA2{StrandType:as}$”, the figure is 47.4%; as for “RNA1{r(G)p.r(A)p.r(G)p.r(G)p.r(A)p.r(G)p.r(A)p.r(A)p.r(A)p.r(U)p.r(A)p.r(G)p.r(C)p.r(A)p.r(G)p.r(G)p.r(A)p.r(C)p.r(C)p.d(T)p.d(T)}|RNA2{r(G)p.r(G)p.r(U)p.r(C)p.r(C)p.r(U)p.r(G)p.r(C)p.r(U)p.r(A)p.r(U)p.r(U)p.r(U)p.r(C)p.r(U)p.r(C)p.r(C)p.r(U)p.r(C)p.d(T)p.d(T)}$$$RNA1{StrandType:ss}|RNA2{StrandType:as}$”, 54.8%; as for “RNA1{r(U)p.r(A)p.r(C)p.r(A)p.r(A)p.r(A)p.r(C)p.r(A)p.r(A)p.r(A)p.r(A)p.r(U)p.r(C)p.r(C)p.r(C)p.r(G)p.r(A)p.r(A)p.r(A)p.d(T)p.d(T)}|RNA2{r(U)p.r(U)p.r(U)p.r(C)p.r(G)p.r(G)p.r(G)p.r(A)p.r(U)p.r(U)p.r(U)p.r(U)p.r(G)p.r(U)p.r(U)p.r(U)p.r(G)p.r(U)p.r(A)p.d(C)p.d(T)}$$$RNA1{StrandType:ss}|RNA2{StrandType:as}$”, 66.1%.
